We go through 18 molecules from patent US5240717A, “Process for mannose and mannose isomerase production using mannose isomerase-producing pseudomonas” (Amano Pharmaceutical Co., Ltd., priority 1990, dated 1993).

The test system of the first data set is mannose isomerase. In words: thermal and pH stability of the enzyme of the invention (residual activity). It counts as physicochemical, Pseudomonas sp. AM-9582. Particulars: presence of calcium ions. As to the method:
The residual activities after heating treatment at 60° C. for 5, 10, 15, 20, 30 minutes in 0.05M Tris buffer (pH 7.0) are, about 90%, 68%, 52%, 42%, 30% respectively.
The residual activity was measured after the enzyme was incubated in 0.1M buffer (acetate or phosphate buffer) of various pH at room temperature (25° C.) for 3 hours. As the result, it is stable in the pH range 6 to 9.
(§1) Into 0.5 ml of a 0.1M phosphate buffer (pH 7.0) containing 0.2M mannose dissolved therein is added a suitable amount of the enzyme, the total volume is made up with water to 1.0 ml, and the reaction mixture is incubated at 50° C. The amount of fructose formed is determined by the cysteine-carbazole method. The amount of the enzyme forming 1 micromole of fructose per one minute under this condition is defined as one unit.
Turning to `[Ca+2]` [calcium ions], the “Effect on thermal stability of the enzyme” value is “increases the thermal stability”.

A further data set has as its system mannose isomerase. Put plainly: mannose isomerase activity of the enzyme of the invention (optimum conditions, substrates, inhibitors). In kind it is biochemical, Pseudomonas sp. AM-9582.
Settings: not given
How it is done:
It is active in a pH range from about 6 to 11, but the optimum pH is about 8 (under the reaction condition of 50° C. for 30 minutes, in 0.1M phosphate buffer).
It is active up to about 70° C., but the optimum temperature is about 55° C. under the reaction conditions of 0.1M mannose, 0.05M Tris buffer (pH 7.0) for 30 minutes.
as §1
With `O=C[C@H](O)[C@@H](O)[C@H](O)[C@H](O)CO` [D-glucose], the “Substrate specificity (activity of the enzyme on the sugar)” value (from here on “Substrate specificity”) is “not substantially”.
In the case of `C[C@H](O)[C@@H](O)[C@@H](O)[C@H](O)C=O` [L-fucose], the “Substrate specificity” value was “not substantially”.
Still for that read-out and setting: the entry for `C[C@@H](O)[C@@H](O)[C@H](O)[C@H](O)C=O` [D-rhamnose] is “not substantially”.
In the case of `O=C[C@@H](O)[C@@H](O)[C@H](O)CO` [D-lyxose], the “Substrate specificity” value was “active”.
Take `O=C[C@@H](O)[C@@H](O)[C@H](O)[C@H](O)CO` [D-mannose]: the “Substrate specificity” value was “active”.
On the same count and under the same terms, to `O=C[C@H](O)[C@@H](O)[C@H](O)CO` [D-xylose] belongs “not substantially”; to `O=C[C@@H](O)[C@H](O)[C@@H](O)CO` [L-xylose], “not substantially”; to `C[C@@H](O)[C@H](O)[C@H](O)[C@@H](O)C=O` [D-fucose], “not substantially”.
On the same count and under the same terms, the entry for `O=C[C@@H](O)[C@H](O)[C@H](O)CO` [D-arabinose] is “not substantially”.
Turning to `O=C[C@H](O)[C@@H](O)[C@@H](O)CO` [L-arabinose], the “Substrate specificity” value was “not substantially”.
With `C[C@H](O)[C@H](O)[C@@H](O)[C@@H](O)C=O` [L-rhamnose], the “Substrate specificity” value was “not substantially”.
Turning to `O=C[C@H](O)[C@H](O)[C@H](O)CO` [D-ribose], the “Substrate specificity” value was “not substantially”.

The same data set, now with this note: 5×10^-3 M of inhibitor.
In the case of `O=[N+]([O-])[O-].[Ag+]` [AgNO3], the “Inhibition of the enzyme” value was “strongly inhibited”.
The same measure, in the same setting: to `[Cl][Al]([Cl])[Cl]` [AlCl3] belongs “strongly inhibited”; to `O=C(O)c1cc[c]([Hg][Cl])cc1` [p-chloromercury benzoate], “strongly inhibited”.
Same read-out and setting: the entry for `O=S(=O)([O-])[O-].[Fe+2]` [FeSO4] is “strongly inhibited”.
On the same count and under the same terms, the entry for `[Cl][Hg][Cl]` [HgCl2] is “strongly inhibited”.

A further data set has as its system Salmonella.
Assay: not given
Particulars: cited from earlier work.
Take `O=C[C@@H](O)[C@@H](O)[C@H](O)[C@H](O)CO` [D-mannose]: the “Growth of Salmonella” value is on record as “inhibits the growth”.
